The text below walks through data of article PMC12221113, “Deferasirox Derivatives as Inhibitors of Kallikrein‐Related Peptidases Associated to Neurodegenerative Diseases” (Chemmedchem, 2025).

Series [1] in a line: Calcein transchelation (calcein release) assay. The series is classed as physicochemical. As to conditions: calcein 100 nM, 4 h at room temperature; estimation, assay not fully quantitative; read-out: Apparent affinity (pseudo‐affinity constant Kd for Fe3+).
In a further series the target is T1, KLK8 (Homo sapiens, UniProt O60259).
T1 sequence (O60259 33-260): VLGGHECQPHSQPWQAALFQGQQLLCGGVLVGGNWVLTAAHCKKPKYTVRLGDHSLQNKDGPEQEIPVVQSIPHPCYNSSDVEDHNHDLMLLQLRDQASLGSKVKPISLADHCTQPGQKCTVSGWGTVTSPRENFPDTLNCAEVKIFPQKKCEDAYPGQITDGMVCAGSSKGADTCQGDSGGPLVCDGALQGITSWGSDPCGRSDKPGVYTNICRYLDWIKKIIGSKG
The series can be described thus: KLK8 fluorogenic enzyme inhibition assay (Boc-VPR-AMC).

The target in the next series is KLK6 (Homo sapiens, UniProt Q92876). Nature of the series: KLK6 fluorogenic enzyme inhibition assay (Boc-QAR-AMC).
In a further series the target is KLK1 (Homo sapiens, UniProt P06870). Nature of the series: KLK1 fluorogenic enzyme inhibition assay (H-PFR-AMC).
A short description of series [2]: UV–vis spectroscopy of Fe3+ chelation and complex stability. Type of series: physicochemical. As to conditions: activity buffer pH 7.4, 1:1 ratio, t = 0 to 240 min. Here is the method: UV–vis analysis of DFX was first performed to monitor the chelation process and the stability of the Fe^3+ complex over time at a 1:1 ratio, typically representing the duration of inhibition assay (30 min to 4 h) (Figure S1, Supporting Information). In these conditions of pH (7.4) and ligand‐to‐iron ratio and according to Steinhauser et al. the main species in solution is assigned to [Fe(DFX)2]^3−.^[ [49] ^] Indeed, we aimed to explore not only the chelation properties but also the impact of the chelated species on enzyme inhibition.
2.c. Chelation properties, iron interactions, and selectivity profiles of selected compounds targeting KLK activity.
Figure S2: Stability of the chelated species as monitored by spectrophotometry. UV/VIS spectra of molecules alone using activity buffer at pH 7.4 (in orange at 500 µM) or in the presence of FeCl3 (ratio of 1:1) at different times (t = 0 in red, 30 min in black, 60 min in blue and 240 min in green). The purple trace corresponds to iron only at 500 µM All data are representative of 2 independent experiments performed in duplicate. […]

Series [3] in a line: CCK8 cell viability assay, HMC3. The series is classed as cell-based. The following applies: human, HMC3 microglial cells; HMC3, 24h, 25 and 50 μM, in absence or presence of iron (100 µM FAC); read-out: percentage of cell viability. On the technique in general: Formazan colour is commonly taken as a measure of viable cells.
Experimental: (§1) Human neuroblastoma cell line (SH-SY5Y) was purchased at American Type Culture Collection
(§2) Both cell lines were cultured in Dulbecco’s Modified Eagle Medium (DMEM)
(§3) containing 10% heat inactivated fetal bovine serum (FBS), 1% Penicillin/Streptomycin, 10 mM
(§4) Sodium Pyruvate, 2 mM L-Glutamine and 4,5 g/L D-glucose at 37°C, in a 5% humidified
(§5) incubator. Cells were cultivated until 80% confluence in flasks then were plated in 96-well
(§6) plates. For this experiment, SH-SY5Y were used at 10th passage and HMC3 at 13th. SH-SY5Y
(§7) cells were seeded at a density of 3x10^4 cells/well and HMC3 at a density of 10^4 cells/well. After
(§8) seeding, cells were left in complete medium overnight to adhere to the plates. After that, cells
(§9) were treated using inhibitors solubilized in DMSO at stock concentrations of 2,5 mM or 5 mM
(§10) with or without 10 mM iron. Iron solution was prepared by using FAC (Ferric Ammonium
(§11) Citrate, Sigma®) at stock concentration of 25 mM. After 24h of treatment, cell viability was
(§12) assessed with the CCK8 (Cell-Counting Kit 8) from TargetMol. After treatments, 10 µL of CCK8
(§13) reagent was diluted in 90 µL of complete medium and added to each well. After 3 hours at
(§14) 37°C, cell viability was assessed by absorbance measurement at 460 nm. Each viability assay
(§15) is the mean of two independent experiments performed in triplicates.
(§16) treated for 24h with the two selected concentrations of inhibitor (25 µM or 50 µM)
(§17) preincubated or not with 100 µM of FAC. The data are the mean of two independent
experiments performed in triplicates.
A further series deals with T2, KLK5 (Homo sapiens, UniProt Q9Y337).
T2 sequence (Q9Y337 67-293 limits assumed): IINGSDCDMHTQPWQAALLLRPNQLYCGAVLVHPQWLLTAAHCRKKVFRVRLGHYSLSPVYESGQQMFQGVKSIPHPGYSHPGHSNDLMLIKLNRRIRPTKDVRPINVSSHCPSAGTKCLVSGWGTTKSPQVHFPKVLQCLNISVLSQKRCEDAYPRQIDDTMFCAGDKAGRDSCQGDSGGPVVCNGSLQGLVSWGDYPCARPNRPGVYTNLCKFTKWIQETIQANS
Nature of the series: Selectivity screening, KLK5. As to conditions: read-out: percentage of inhibition KLK5.

For series [4], the system named is KLK's of the CNS triad (KLK1‐KLK6‐KLK8). The series can be described thus: Reversibility analysis by dilution after preincubation. The series is classed as biochemical, human. The following applies: 100-fold dilution after 15 min preincubation.
Experimental: Aliquots of reaction mixtures (1 μL) were added to 99 μL of buffer containing the fluorogenic substrate (experimental conditions identical to the routine protocol used for a given enzyme). The mechanism of inhibition was determined by varying substrate and inhibitor concentrations, the type of inhibition and inhibition parameter (Ki or Ki′) are determined by Dixon's plots.
A short description of series [5]: CCK8 cell viability assay, SH-SY5Y. The following applies: human, SH-SY5Y neuroblastoma cells, 25 and 50 μM, in absence or presence of iron (100 µM FAC), read-out: percentage of cell viability. Type of series: cell-based.
Experimental: as §1, §2, §3, §4, §5, §6, §7, §8, §9, §10, §11, §12, §13, §14, §15, §16, §17
experiments performed in triplicates.
In a further series the target is T3, KLK4 (Homo sapiens, UniProt Q9Y5K2).
T3 construct: purchased R&D Systems
The series can be described thus: Selectivity screening, KLK4. Type of series: biochemical. As to conditions: 50 μM compound, without Fe3+; read-out: percentage of inhibition KLK4.

The next series concerns the target T4, KLK13 (Homo sapiens, UniProt Q9UKR3).
T4 sequence (Q9UKR3 26-277 limits assumed): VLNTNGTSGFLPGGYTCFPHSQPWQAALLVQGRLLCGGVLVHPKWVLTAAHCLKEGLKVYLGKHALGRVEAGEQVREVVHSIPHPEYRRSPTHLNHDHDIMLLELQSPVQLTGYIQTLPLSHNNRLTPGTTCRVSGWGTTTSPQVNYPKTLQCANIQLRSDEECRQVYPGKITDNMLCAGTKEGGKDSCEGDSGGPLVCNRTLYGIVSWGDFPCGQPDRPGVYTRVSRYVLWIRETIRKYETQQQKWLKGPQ
Nature of the series: Selectivity screening, KLK13. The following applies: read-out: percentage of inhibition KLK13.

[6] abbreviates: IC50 KLK8, 15 min preincubation at 37 °C, NI = not a hit (not above 50% inhibition at 50 μM).
The mark [7] stands for this setting: IC50 KLK1, 15 min preincubation at 37 °C, NI = not a hit (not above 50% inhibition at 50 μM).

Each structure is given as a SMILES string. Where two headings read alike, the source gives them in different places.

The term IC50 denotes the point on the concentration scale where inhibition reaches its midpoint. By inhibition is commonly meant the relative decrease from the control value, in per cent. One may read the viability as the share of living cells, or the viability signal relative to a control. Broadly, the Ki is the dissociation constant of the complex between target and ligand, obtained from inhibition or displacement. Lower therefore signals a stronger hold on the target.

KLK1, sequence (P06870 25-262): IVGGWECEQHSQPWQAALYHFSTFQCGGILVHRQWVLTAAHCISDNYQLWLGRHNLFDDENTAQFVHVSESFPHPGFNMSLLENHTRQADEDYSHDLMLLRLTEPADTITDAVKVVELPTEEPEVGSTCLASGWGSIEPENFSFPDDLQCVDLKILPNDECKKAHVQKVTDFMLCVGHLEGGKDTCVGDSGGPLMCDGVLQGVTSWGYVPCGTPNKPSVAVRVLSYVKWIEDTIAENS
T3 sequence (Q9Y5K2 31-254): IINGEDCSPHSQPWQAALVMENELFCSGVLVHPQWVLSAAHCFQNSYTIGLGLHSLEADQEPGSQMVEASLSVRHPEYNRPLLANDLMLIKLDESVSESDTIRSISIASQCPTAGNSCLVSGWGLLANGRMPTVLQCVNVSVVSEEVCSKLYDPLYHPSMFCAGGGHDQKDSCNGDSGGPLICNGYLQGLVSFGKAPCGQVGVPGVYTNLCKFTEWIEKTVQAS
Experimental for KLK13: (§18) All enzyme stocks were stored at −20 °C and purchased from R&D Systems as proenzymes (KLK6, KLK8, KLK13) or as mature and active forms (KLK5). Activation of KLK6, KLK8, and KLK13 is performed in optimized buffers. The activation reaction is initiated by Lysyl‐Endopeptidase at 2.5 mU mL^−1 (Wako Bioproducts). The activation reaction is stopped by diluting the enzyme to 0.5 μg mL^−1 in assay buffer (50 mM Tris, 1 M Citrate, 0.05% w/v Brij‐35, pH 8) to obtain an active enzyme stock. KLK1 was purchased from R & D Systems as pro‐KLK1. Activation of KLK1 is performed in 50 mM Tris‐HCl, 10 mM CaCl2, 150 mM NaCl, 0.05% Brij‐35, pH 7.5. The activation reaction is initiated by bacterial thermolysin at 0.4 μg mL^−1 (Sigma‐Aldrich) and stopped by addition of 100 mM EDTA (Sigma‐Aldrich) to obtain an active KLK1 stock at the same concentration of 100 μg mL^−1. The activation reactions for KLK7 are initiated bacterial thermolysin at 0.4 μg mL^−1 (Sigma‐Aldrich) and stopped by addition of 100 mM EDTA (Sigma‐Aldrich) to obtain active stocks. All enzyme stocks were stored at −20 °C. H‐PFR‐AMC (KLK1), Boc‐VPR‐AMC (KLK5, KLK8, KLK13), Boc‐QAR‐AMC (KLK6, Plasmin), substrates were purchased from Bachem. MeO‐Suc‐RPY‐AMC (KLK7) substrate was purchased from AAT Bioquest. Plasmin (Sigma‐Aldrich) was purchased in mature and active form.
(§19) Compounds were screened on KLKs using a BMG Fluostar microplate reader (black 96‐well microplates). Hit compounds were screened on the selected group of enzymes using optimized concentrations and buffers (KLK1 0.8 nM, KLK4 10 nM, KLK5 0.2 nM; KLK6 1.9 nM; KLK7 6 nM; KLK8 0.2 nM; KLK11 5.2 nM, KLK13 0.47 nM, KLK14 2.5 nM, plasmin 3.3 nM, thrombin 0.1 nM, tissue‐plasminogen activator (tPA) 0.1 nM, matriptase 1 nM, cathepsin L 2 nM) either in absence or prior preincubation in the presence of 100 μM of Fe^3+.
(§20) The proteases are first preincubated for 15 min with each compound (50 and 100 μM) or with DMSO (<2%, negative control) in a total volume of 85 μL of 50 mM Tris buffer, 1 M citrate, 0.05% Brij‐35, pH 7, 37 °C. The reaction is triggered by the appropriate substrate at the optimized concentration in 15 μL of 50 mM Tris buffer, 1 M citrate, 0.05% Brij‐35, pH 8 (H‐PFR‐AMC 100 μM; Boc‐VPR‐AMC 100 μM; Boc‐QAR‐AMC 100 μM; Meo‐Suc‐RPY‐AMC 150 μM, Z‐LR‐AMC 100 μM, Z‐GGR‐AMC 100 μM) and followed for 30 min at 37 °C. […] The release of the AMC fluorescent group is detected using the following wavelengths: λex = 360 nm and λem = 460 nm. The percent inhibition is calculated from Equation (1) where V 0 is the initial rate of the DMSO control, the initial rate in the presence of the inhibitor V i. (1) %inhibition=(1−(vi/v0))×100
Experimental for KLK5: as §18, §19, §20

As for `COC(=O)CNC(=O)c1ccc(-n2nc(-c3ccccc3O)nc2-c2ccccc2O)cc1` [3ja], the Kd in [1] was 0.175 ± 0.015 nM. Besides, the IC50 at KLK8 was > 50 µM.
Consider `Oc1ccccc1-c1nc(-c2ccccc2O)n(-c2ccccc2)n1` [3n], for which, in series [1], the Kd was 0.081 ± 0.045 nM. Also, the IC50 against KLK8 (setting [6]) is > 50 µM.
On to `CCOC(=O)Cn1nc(-c2ccccc2O)nc1-c1ccccc1O` [3g], for which, on KLK8, the IC50 is > 50 µM.
Still for that read-out and setting: then `COC(=O)c1ccc(-n2nc(-c3ccccc3O)nc2-c2ccccc2O)cc1` [3i], with > 50 µM; and `NS(=O)(=O)c1ccc(-n2nc(-c3ccccc3O)nc2-c2ccccc2O)cc1` [3s], with > 50 µM.
For `COc1ccccc1-c1nc(-c2ccccc2OC)n(-c2ccc(C(=O)O)cc2)n1` [compound 21], the IC50 against KLK6, against KLK1 (setting [7]) and on KLK8 was > 50 µM each time.
For `Oc1ccccc1-c1nc(-c2ccccc2O)n(-c2ccc(Br)cc2)n1` [3p], the IC50 against KLK8 is > 50 µM.
With `Oc1ccccc1-c1noc(-c2ccccc2O)n1` [compound 23], at KLK8 (setting [6]), the IC50 was > 50 µM.
On KLK8, `Oc1ccccc1-c1nc(-c2ccccc2O)n(-c2ccc(-c3nnn[nH]3)cc2)n1` [3v] yielded a 50% inhibitory concentration (IC50) of 44.1 ± 1.7 µM.
Still for that read-out and setting: to `O=C(O)[C@H]1CC[C@H](n2nc(-c3ccccc3O)nc2-c2ccccc2O)CC1` [3fb] belongs > 50 µM.
As for `COc1ccc(-c2nc(-c3ccccc3O)n(-c3ccc(C(=O)O)cc3)n2)cc1` [compound 10], the values for the IC50 against KLK6, against KLK1 (setting [7]) and against KLK8 were > 50 µM, > 50 µM and 33.4 ± 1.1 µM, respectively.
For the compound `COC(=O)C(Cc1c[nH]c2ccccc12)NC(=O)c1ccc(-n2nc(-c3ccccc3O)nc2-c2ccccc2O)cc1` (centres unmarked) [3la], in series [1], the Kd was 0.13 ± 0.02 nM. Also, the IC50 against KLK8 was > 50 µM.
On to `COC(=O)C(Cc1ccccc1)NC(=O)c1ccc(-n2nc(-c3ccccc3O)nc2-c2ccccc2O)cc1` (centres unmarked) [3ka], for which, on KLK8, the IC50 was > 50 µM.
For the compound `O=C(O)c1ccc(-n2nc(-c3ccccc3)nc2-c2ccccc2O)cc1` [compound 9], the “UV–vis spectrum in the presence of FeCl3 (iron complex formation)” value (from here on “UV–vis spectrum in the presence of FeCl3”) in series [2] is on record as “no changes in the absorption spectra”. Besides, the figures for the IC50 on KLK6, against KLK1 (setting [7]) and against KLK8 were > 50 µM, > 50 µM and 46.8 ± 0.2 µM, respectively.
On to `NC(=O)c1ccc(-n2nc(-c3ccccc3O)nc2-c2ccccc2O)cc1` [3u], for which, in series [1], the Kd was 0.093 ± 0.007 nM. This compound also registered an IC50 against KLK8 of 23.7 ± 2.3 µM.
In the case of `COC(=O)C1CCCN1C(=O)c1ccc(-n2nc(-c3ccccc3O)nc2-c2ccccc2O)cc1` (centres unmarked) [3ma], the Kd in [1] was 0.105 ± 0.022 nM. The IC50 on KLK8 was > 50 µM.
As for `COc1ccc(-c2nc(-c3cccnc3O)n(-c3ccc(C(=O)O)cc3)n2)cc1` [compound 19], on KLK1 (read-out: IC50 KLK1, 15 min preincubation at 37 °C, NI = not a hit (not above 50% inhibition at 50 μM)), the IC50 is > 50 µM.
`N#Cc1ccc(-n2nc(-c3ccccc3O)nc2-c2ccccc2O)cc1` [3o]: the IC50 against KLK8 is > 50 µM.
Still for that read-out and setting: to `CCOC(=O)[C@H]1CC[C@H](n2nc(-c3ccccc3O)nc2-c2ccccc2O)CC1` [3fa] belongs > 50 µM.
As to `O=C(O)c1ccc(-n2nc(-c3ccccc3O)nc2-c2ccc(O)cc2O)cc1` [compound 14], the values for the IC50 against KLK6, against KLK1 (setting [7]) and against KLK8 were > 50 µM, > 50 µM and 38.3 ± 3.5 µM, respectively.
In the case of `O=C(NC(Cc1ccccc1)C(=O)O)c1ccc(-n2nc(-c3ccccc3O)nc2-c2ccccc2O)cc1` (centres unmarked) [3kb], the IC50 is 16.4 ± 1 µM against KLK1 (setting [7]) and 24.8 ± 1.9 µM on KLK8.
As to `O=S(=O)(O)c1ccc(-n2nc(-c3ccccc3O)nc2-c2ccccc2O)cc1` [3t], the “UV–vis spectrum in the presence of FeCl3” value in series [2] is “appearance of an absorption band with a maximum at 468 nm”. In series [1], the Kd was 0.165 ± 0.017 nM. On KLK8, this compound displayed a 50% inhibitory concentration (IC50) of 29.5 ± 1.4 µM.
As to `COc1ccc(-c2nc(-c3ccccc3O)nn2-c2ccc(C(=O)O)cc2)c(O)c1` [compound 13], in [2], the “UV–vis spectrum in the presence of FeCl3” value is “a similar absorption band is observed”. In addition, the Kd in series [1] is 0.077 ± 0.019 nM. The IC50 against KLK6 is > 50 µM; at KLK1 (setting [7]), > 50 µM; against KLK8, 24.8 ± 1.3 µM.
As to `O=C(O)Cn1nc(-c2ccccc2O)nc1-c1ccccc1O` [3h], the Kd in [1] was 0.22 ± 0.024 nM. In addition, the IC50 against KLK8 was > 50 µM.
Taken in the same sequence, the figures for `O=C(O)CNC(=O)c1ccc(-n2nc(-c3ccccc3O)nc2-c2ccccc2O)cc1` [3jb] were 0.078 ± 0.009 nM and 27 ± 0.6 µM.
Turning to `O=C(c1ccccc1)n1nc(-c2ccccc2O)nc1-c1ccccc1O` [3e], in series [1], the Kd is 0.41 ± 0.035 nM. Also, the inhibition at 50 µM on KLK6 (read-out: percentage of inhibition KLK6) amounted to 82.4%; at KLK1 (read-out: percentage of inhibition KLK1), 82.1%; at KLK5, 98.8%; on KLK4 it was 67.2%; on KLK13 it was 97.1%. Also, the viability at 24 h in series [3] and in series [5] was > 80% each time. The Ki at KLK1 stood at 24 µM. In addition, the “Type of inhibition KLK1” value on KLK1 (Dixon plot, without Fe3+) is given as “competitive inhibitor”. For the same compound, the results for the concentration for half-maximal inhibition (IC50) against KLK1 (setting [7]) and on KLK8 were 23.3 ± 0.9 µM and > 50 µM, respectively. Moreover, the “reversibility and time dependence of inhibition” value in series [4] is “reversible and time‐independent inhibitors”.
Regarding `COc1ccc(-n2nc(-c3ccccc3O)nc2-c2ccccc2O)cc1` [3q], the IC50 at KLK8 (setting [6]) was > 50 µM.
For the compound `[Cl][Fe]([Cl])[Cl]` [Fe3+], the IC50 at KLK6 (read-out: Pseudo-IC50 of Fe3+ on KLK6, Figure S4 B, curve fit y=(100*M0)/(M0+M2)) came to 1320 µM; at KLK1 (read-out: Pseudo-IC50 of Fe3+ on KLK1, Figure S4 A, curve fit y=(100*M0)/(M0+M2)), 989 µM; on KLK8 (read-out: Pseudo-IC50 of Fe3+ on KLK8, Figure S4 C, curve fit y=(100*M0)/(M0+M2)) it was 1120 µM.
